These results are taken from patent US20250000999A1, “POLYMERSOMES FOR CLEARANCE OF AMYLOID BETA AND/OR TAU PROTEINS” (UCL Business Ltd, priority 2021, published 2025).

The test deals with LRP-1. Kind of test: Single binding energy of a ligand/LRP-1 receptor pair. The source says: wherein: • λ is the density of the ligand type on the external surface of the microparticle or nanoparticle (number per nm^2 • A is the microparticle or nanoparticle surface area (in nm^2); • ξ is the number of the LRP-1 receptors accessible to the nanoparticles, and thus ξ=ΓA where, Γ is the LRP-1 surface density (number per nm^2) and A is as defined above; • β=(kBT)^−1 wherein kB is the Boltzmann constant (in JK^−1) and T is the absolute temperature in Kelvin; • εB is the single energy of binding of a ligand type/LRP-1 receptor pair (in J); and • uS is the steric potential between the nanoparticle or microparticle and the cell surface (in J).
Chain of LRP-1 (Q07954 20-4544, species assumed): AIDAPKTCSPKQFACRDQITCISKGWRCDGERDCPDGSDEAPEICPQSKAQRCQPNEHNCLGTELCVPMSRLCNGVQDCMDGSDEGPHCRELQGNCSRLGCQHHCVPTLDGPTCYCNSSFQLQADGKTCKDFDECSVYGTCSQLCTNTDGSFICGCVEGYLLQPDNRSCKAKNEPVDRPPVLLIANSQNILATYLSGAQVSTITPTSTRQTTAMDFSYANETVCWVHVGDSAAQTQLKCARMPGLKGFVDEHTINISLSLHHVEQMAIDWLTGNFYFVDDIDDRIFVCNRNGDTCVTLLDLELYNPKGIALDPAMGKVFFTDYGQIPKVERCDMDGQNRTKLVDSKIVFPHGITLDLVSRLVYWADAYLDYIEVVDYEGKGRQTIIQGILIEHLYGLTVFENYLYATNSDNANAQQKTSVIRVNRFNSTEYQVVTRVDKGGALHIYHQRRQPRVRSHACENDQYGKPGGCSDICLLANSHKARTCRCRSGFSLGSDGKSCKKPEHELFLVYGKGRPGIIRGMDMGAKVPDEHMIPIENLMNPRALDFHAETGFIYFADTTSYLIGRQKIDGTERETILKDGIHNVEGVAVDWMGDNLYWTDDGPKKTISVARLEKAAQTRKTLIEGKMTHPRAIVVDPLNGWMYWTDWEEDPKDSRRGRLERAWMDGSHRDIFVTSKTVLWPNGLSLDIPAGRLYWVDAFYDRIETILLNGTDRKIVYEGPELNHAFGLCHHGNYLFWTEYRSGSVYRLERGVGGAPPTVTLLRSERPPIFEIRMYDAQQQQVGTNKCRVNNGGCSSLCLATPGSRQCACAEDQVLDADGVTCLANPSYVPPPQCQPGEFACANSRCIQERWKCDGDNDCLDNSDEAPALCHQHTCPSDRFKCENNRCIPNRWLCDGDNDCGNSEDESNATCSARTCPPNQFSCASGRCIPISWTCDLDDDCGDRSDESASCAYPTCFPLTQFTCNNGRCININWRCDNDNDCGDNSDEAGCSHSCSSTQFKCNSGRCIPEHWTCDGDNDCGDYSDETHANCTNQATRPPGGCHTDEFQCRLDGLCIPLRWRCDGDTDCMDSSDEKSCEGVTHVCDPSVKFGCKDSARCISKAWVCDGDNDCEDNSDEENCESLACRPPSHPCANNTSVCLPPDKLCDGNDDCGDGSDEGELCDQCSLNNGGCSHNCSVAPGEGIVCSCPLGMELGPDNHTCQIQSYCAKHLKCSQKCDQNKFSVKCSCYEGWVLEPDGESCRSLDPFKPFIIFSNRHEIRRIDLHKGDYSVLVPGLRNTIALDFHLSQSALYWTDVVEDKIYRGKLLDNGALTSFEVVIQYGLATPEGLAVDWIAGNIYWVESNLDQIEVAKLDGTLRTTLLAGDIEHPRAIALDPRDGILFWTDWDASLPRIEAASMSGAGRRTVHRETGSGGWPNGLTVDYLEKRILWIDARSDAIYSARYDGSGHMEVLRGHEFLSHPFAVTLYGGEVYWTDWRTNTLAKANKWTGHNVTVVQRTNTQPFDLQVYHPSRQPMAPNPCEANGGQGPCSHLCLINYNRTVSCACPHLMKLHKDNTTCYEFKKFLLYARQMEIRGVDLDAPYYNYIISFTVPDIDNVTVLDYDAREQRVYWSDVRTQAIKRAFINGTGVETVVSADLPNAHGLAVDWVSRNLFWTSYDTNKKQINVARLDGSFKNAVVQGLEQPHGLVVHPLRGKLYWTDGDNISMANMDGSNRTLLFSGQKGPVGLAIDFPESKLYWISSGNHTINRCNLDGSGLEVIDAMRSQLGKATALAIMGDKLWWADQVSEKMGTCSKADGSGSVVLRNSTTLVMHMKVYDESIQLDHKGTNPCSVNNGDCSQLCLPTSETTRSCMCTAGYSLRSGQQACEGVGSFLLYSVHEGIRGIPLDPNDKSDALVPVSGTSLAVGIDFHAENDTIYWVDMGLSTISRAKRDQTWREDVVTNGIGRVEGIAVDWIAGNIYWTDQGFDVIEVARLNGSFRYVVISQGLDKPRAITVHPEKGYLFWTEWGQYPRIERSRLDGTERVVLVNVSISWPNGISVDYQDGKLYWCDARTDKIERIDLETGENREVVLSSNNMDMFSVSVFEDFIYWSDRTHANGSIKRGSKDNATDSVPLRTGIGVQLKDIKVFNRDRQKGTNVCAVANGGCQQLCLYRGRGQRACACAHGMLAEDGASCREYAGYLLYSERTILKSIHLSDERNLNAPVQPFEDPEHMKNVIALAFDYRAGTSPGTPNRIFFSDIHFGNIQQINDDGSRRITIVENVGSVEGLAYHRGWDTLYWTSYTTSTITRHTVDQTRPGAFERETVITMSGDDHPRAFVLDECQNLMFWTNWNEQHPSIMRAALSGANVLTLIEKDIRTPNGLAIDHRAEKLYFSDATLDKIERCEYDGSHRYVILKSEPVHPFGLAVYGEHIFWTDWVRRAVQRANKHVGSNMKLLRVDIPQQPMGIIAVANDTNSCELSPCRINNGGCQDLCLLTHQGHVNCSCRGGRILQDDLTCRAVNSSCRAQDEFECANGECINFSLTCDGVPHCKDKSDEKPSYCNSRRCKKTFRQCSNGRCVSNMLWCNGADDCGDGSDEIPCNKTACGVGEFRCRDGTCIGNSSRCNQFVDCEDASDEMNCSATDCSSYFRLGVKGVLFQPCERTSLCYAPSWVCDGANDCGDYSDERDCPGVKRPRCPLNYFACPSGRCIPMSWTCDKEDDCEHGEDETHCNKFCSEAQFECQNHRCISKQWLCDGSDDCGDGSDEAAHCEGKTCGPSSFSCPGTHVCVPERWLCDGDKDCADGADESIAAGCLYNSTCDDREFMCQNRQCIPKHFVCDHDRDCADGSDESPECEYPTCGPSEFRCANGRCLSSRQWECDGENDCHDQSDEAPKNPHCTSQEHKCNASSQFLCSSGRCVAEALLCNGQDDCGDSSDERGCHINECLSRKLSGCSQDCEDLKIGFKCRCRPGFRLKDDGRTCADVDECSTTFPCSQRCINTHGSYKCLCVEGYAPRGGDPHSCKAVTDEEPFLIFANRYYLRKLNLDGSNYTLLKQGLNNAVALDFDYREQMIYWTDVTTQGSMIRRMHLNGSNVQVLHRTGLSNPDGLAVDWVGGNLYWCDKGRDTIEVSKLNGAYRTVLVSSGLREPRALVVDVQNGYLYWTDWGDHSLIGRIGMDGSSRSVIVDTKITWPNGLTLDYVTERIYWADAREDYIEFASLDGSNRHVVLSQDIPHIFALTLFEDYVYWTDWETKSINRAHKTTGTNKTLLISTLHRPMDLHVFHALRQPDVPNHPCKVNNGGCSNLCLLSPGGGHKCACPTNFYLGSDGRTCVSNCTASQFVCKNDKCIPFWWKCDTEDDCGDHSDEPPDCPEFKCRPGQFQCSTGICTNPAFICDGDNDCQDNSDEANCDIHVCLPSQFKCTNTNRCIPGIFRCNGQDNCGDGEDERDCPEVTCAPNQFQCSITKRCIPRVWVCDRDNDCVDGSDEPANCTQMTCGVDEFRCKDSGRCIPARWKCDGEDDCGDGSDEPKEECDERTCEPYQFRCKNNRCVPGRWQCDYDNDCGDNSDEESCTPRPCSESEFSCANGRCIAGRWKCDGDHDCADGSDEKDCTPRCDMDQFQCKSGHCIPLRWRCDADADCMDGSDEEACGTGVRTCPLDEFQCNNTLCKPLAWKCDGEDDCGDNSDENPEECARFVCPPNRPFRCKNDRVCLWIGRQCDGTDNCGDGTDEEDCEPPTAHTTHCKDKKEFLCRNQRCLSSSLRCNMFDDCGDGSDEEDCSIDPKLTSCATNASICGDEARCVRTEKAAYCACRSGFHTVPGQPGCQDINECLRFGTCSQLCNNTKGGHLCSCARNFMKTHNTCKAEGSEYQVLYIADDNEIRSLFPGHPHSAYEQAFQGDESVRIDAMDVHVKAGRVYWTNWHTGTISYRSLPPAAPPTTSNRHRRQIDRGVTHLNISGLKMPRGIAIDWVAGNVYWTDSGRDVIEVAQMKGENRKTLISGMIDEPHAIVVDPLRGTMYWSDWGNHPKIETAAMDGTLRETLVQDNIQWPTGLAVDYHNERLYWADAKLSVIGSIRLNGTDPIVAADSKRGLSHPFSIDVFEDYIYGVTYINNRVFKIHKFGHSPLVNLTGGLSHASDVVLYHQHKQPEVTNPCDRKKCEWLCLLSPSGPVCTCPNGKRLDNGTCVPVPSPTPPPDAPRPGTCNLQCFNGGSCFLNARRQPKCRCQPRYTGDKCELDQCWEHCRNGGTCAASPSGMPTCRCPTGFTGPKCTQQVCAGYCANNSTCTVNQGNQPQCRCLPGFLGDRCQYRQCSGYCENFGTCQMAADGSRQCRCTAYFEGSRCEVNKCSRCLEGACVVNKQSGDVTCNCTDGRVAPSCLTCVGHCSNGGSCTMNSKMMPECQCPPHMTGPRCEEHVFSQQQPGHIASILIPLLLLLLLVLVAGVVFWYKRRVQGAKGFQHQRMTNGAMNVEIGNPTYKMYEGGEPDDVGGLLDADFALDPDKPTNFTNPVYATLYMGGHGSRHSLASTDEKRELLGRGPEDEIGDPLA
The single ligand binding potential εB between a given ligand and the LRP-1 receptor can be measured experimentally by binding assays including Surface plasmon resonance spectroscopy, Isothermal titration calorimetry, radiolabeling or fluorescent labelling. It can also be estimated computationally using molecular docking and or molecular dynamics methods.

Take TFFYGGSRGKRNNFKTEEY [Angiopep-2]: the “εB, single energy of binding of ligand/LRP-1 receptor pair” value is reported as −15 kBT.
